Source: US20070155663A1, “Use of chemokine receptor agonists for stem cell transplantation” (priority 2003, published 2007)

System: FDCP-Mix cells
Experiment: in vitro chemotactic assay of FDCP-Mix cells in 96-transwell chambers
Assay type: cell-based
Conditions: migration for 14 h
Protocol: Figure: FDCP-Mix cells were subjected to in vitro chemotactic assays. Chemotaxis was assessed in 96-transwell chambers (Neuroprobe, Cabin John, MD) by using polyvinylpyrrolidone-free polycarbonate membranes (Nucleopore, Neuroprobe) with 5-μm pores. Four hundred microliters of IMDM medium was added to the bottom of the well, and was supplemented with varying concentrations of SDF-1α or MIP-3α (R&D Systems). 100 μl of IMDM medium containing 50.000 FDCP-Mix cells were added to the upper wells of the chemotaxis chamber. Additionally 100 μl of medium either with no supplement or supplemented with MIP-3α was added to the upper well. […] Simultaneously FDCP-Mix progenitor cells were coincubated with MIP-3α in concentrations of 10 to 1000 ng/ml medium.

MIP-3α: Macrophage Inflammatory Protein - 3α, CCR6 ligand (R&D Systems)
Chemotactic migration of FDCP-Mix progenitor cells (MIP-3a in the bottom well, 10 to 1000 ng/ml medium): does not induce chemotactic migration | Sensitivity of FDCP-Mix cells to migrate to SDF-1α (SDF-1a 10 ng/ml in bottom well, cells coincubated with agonist (MIP-3α 10 to 1000 ng/ml medium)): does increase the sensitivity
